{"source": "patent US20180042827A1", "about": "“METHOD OF PROTECTING SKIN FROM ULTRAVIOLET RADIATION” (FIC BIOTECH INC., priority 2016, published 2018)", "type_in_all_cases": "cell-based, human", "key": {"HFF3 cells": {"tested_on": "HFF3 cells", "assay": "Intracellular lipid peroxidation (C11-BODIPY 581/591 fluorescence) after UVA irradiation", "conditions": "pretreated, 50 KJ/m^2 UVA, versus only UVA-treated cells", "protocol": "(§1) When cells were seeded in culture dish for overnight incubation, 200 μM of compound (I-1) was added to the cells for 2 hours before UVA irradiation.\n(§2) When the ROS attacks the C11-BODIPY^581/591 on the cell membrane, it will emit fluorescent light (excitation light: 488 nm, scattered light: 510-665 nm).\n(§3) After treating 10 μM C11-BODIPY^581/591 for 30 minutes at 37° C., the cells were washed with HEPES buffer (4-(2-hydroxyerhyl)-piperazine-1-erhanesulfonic acid, HEPES) and were observed by using the laser scanning confocal microscope."}, "[1]": {"tested_on": "HFF1 cells (G6PD deficient skin fibroblast)", "assay": "Intracellular lipid peroxidation (C11-BODIPY 581/591 fluorescence) after UVA irradiation", "conditions": "pretreated, 50 KJ/m^2 UVA, versus only UVA-treated cells", "protocol": "as §1, §2, §3"}, "HFF-3 cells [2]": {"tested_on": "HFF-3 cells", "assay": "Calcium detection of cytoplasm and mitochondria (Fluo-4 / Rhod-2) after UVA irradiation", "conditions": "200 μM added prior to UVA (50 KJ/cm^2)", "protocol": "as §1\n(§4) Calcium mobilization detection dye: 1.5 μM of RHOD-2/AM (rhod-2) is a cell-permeable fluorescent probe for measuring calcium (Ca^2+) in mitochondria (excitation light: 543 nm, scattered light: 581 nm), and 2 μM of FLUO-4/AM (fluo-4) is a cell-permeable fluorescent probe for measuring calcium (Ca^2+) in cytoplasm (excitation light: 488 nm, scattered light: 516 nm).\n(§5) HFF-3 and HFF-1 cells were cultivated and irradiated with UVA (50KJ/cm^2). The culture medium was then replaced with new medium and treated with 2 μM Flou-4 and 1.5 μM of Rhod-2 (for the detection of mitochondrial calcium) for 30 minutes at 37° C. in the dark. Rhod-2 is a cationic rhodamine-based indicator probe and it can accumulate preferentially in potential-driven uptake in mitochondria. The resting mitochondrial calcium concentration is generally in the range of 100-150 nM. At this level of calcium, the brownish red fluorescence of Rhod-2 is minimal. However, when large excess of calcium ions are uptaken by the mitochondria, concentration-dependent increases in the intensities of Rhod-2 fluorescence will occur. The phenomenon is a testimony of mitochondrial calcium overload."}, "[3]": {"tested_on": "HFF-1 cells (G6PD deficient skin fibroblast)", "assay": "Calcium detection of cytoplasm and mitochondria (Fluo-4 / Rhod-2) after UVA irradiation", "conditions": "200 μM added prior to UVA (50 KJ/cm^2)", "protocol": "as §1, §4, §5"}, "HFF-3 cells [4]": {"tested_on": "HFF-3 cells", "assay": "Intracellular glutathione (GSH) depletion (CMF-DA fluorescence) after UVA irradiation", "conditions": "200 μM added prior to UVA irradiation (25, 50 and 100 KJ/cm^2)", "protocol": "as §1\n(§6) Glutathione (GSH) fluorescent dye: 10 μM of 5-chloromethyl fluorescein diacetate (CMF-DA). When CMF-DA enters the cells, the trapped CMF reacts with the GSH to form a fluorescent compound which to emit fluorescent light (excitation light: 492 nm, scattered light: 517 nm).\n(§7) HFF-3 and HFF-1 cells were cultivated and irradiated with various dosages of UVA (25, 50 and 100 KJ/cm^2). The culture medium was then replaced with new medium and treated with […] CMF-DA probe for 30 minutes at 37° C. in the dark. Cells were detached by trypsinization, collected by centrifugation and resuspended in PBS. The intracellular GSH contents, as reflected by the green fluorescence intensity of CMF-GSH, were then observed using laser scanning confocal microscope."}, "[5]": {"tested_on": "HFF-1 cells (G6PD deficient skin fibroblast)", "assay": "Intracellular glutathione (GSH) depletion (CMF-DA fluorescence) after UVA irradiation", "conditions": "200 μM added prior to UVA irradiation (25, 50 and 100 KJ/cm^2)", "protocol": "as §1, §6, §7"}, "HFF-3 cells [6]": {"tested_on": "HFF-3 cells", "assay": "Intracellular ROS detection (DCF-DA fluorescence) after UVA irradiation", "conditions": "200 μM added prior to UVA irradiation (25, 50 and 100 KJ/cm^2)", "protocol": "as §1\n(§8) Reactive oxygen species (ROS) fluorescent dye: when 10 μM of 2′,7′-dichlorodihydrofluorescindiacetate (DCF-DA) enters the cells, DCF trapped is oxidized by the ROS and emits fluorescent light (excitation light: 488 nm, scattered light: 525 nm).\n(§9) HFF-3 and HFF-1 cells were cultivated and irradiated with various dosages of UVA (25, 50 and 100 KJ/cm^2). The culture medium was then replaced with new medium and treated with 10 μM of DCF-DA probe for 30 minutes at 37° C. in the dark. Cells were detached by trypsinization, collected by centrifugation and resuspended in PBS. The intracellular ROS, as reflected by the DCF green fluorescence, were then observed using laser scanning confocal microscope."}, "[7]": {"tested_on": "HFF-1 cells (G6PD deficient skin fibroblast)", "assay": "Intracellular ROS detection (DCF-DA fluorescence) after UVA irradiation", "conditions": "200 μM added prior to UVA irradiation (25, 50 and 100 KJ/cm^2)", "protocol": "as §1, §8, §9"}, "HFF-3 cells [8]": {"tested_on": "HFF-3 cells", "assay": "TUNEL analysis of apoptotic cell death after UVA irradiation", "conditions": "200 μM added prior to UVA (50 KJ/cm^2), UVA alone ca 40%", "protocol": "as §1\n(§10) Apoptotic cell death was assayed by using an Apo-BrdU in situ DNA fragmentation assay kit. This kit measures the fragmented DNA of apoptotic cells by catalytically incorporating fluorescein-12-dUTP at 3′-OH DNA ends using the terminal deoxynucleotidyl transferase enzyme. The fluorescein-12-dUTP-labeled DNA can then be visualized by confocal scanning microscope and quantified by using software."}, "[9]": {"tested_on": "HFF-1 cells (G6PD deficient skin fibroblast)", "assay": "TUNEL analysis of apoptotic cell death after UVA irradiation", "conditions": "200 μM added prior to UVA (50 KJ/cm^2), UVA alone ca 80%", "protocol": "as §1, §10"}}, "note": "Entries after “also recorded” stand apart in the source; their conditions may differ.", "data": [{"smiles": "COC(=O)c1cc(O)c(O)c(O)c1", "note": "[compound (I-1), methyl gallate]", "values": [{"measurement": "intracellular lipid peroxidation (green fluorescent intensity of C11-BODIPY 581/591)", "setting": "HFF3 cells", "value": "weaker than that of the only UVA-treated cells; also recorded: significant decline of green fluorescence"}, {"measurement": "intracellular lipid peroxidation (green fluorescent intensity of C11-BODIPY 581/591)", "setting": "[1]", "value": "weaker than that of the only UVA-treated cells; also recorded: significant decline of green fluorescence"}, {"measurement": "mitochondrial calcium overload (brownish red fluorescence of Rhod-2)", "setting": "HFF-3 cells [2]", "value": "can prevent calcium overload in mitochondria; also recorded: could effectively be suppressed"}, {"measurement": "mitochondrial calcium overload (brownish red fluorescence of Rhod-2)", "setting": "[3]", "value": "drastic decrease in brownish red fluorescence intensity; also recorded: could effectively be suppressed"}, {"measurement": "intracellular GSH depletion (green fluorescence of CMF-GSH)", "setting": "HFF-3 cells [4]", "value": "nearly complete protection of GSH depletion; also recorded: nearly complete recovery of green fluorescence"}, {"measurement": "intracellular GSH depletion (green fluorescence of CMF-GSH)", "setting": "[5]", "value": "nearly complete protection of GSH depletion; also recorded: nearly complete recovery of green fluorescence"}, {"measurement": "production of intracellular ROS (DCF fluorescence)", "setting": "HFF-3 cells [6]", "value": "almost completely suppressed"}, {"measurement": "production of intracellular ROS (DCF fluorescence)", "setting": "[7]", "value": "almost completely suppressed; also recorded: nearly complete suppression of ROS production"}, {"measurement": "TUNEL-positive cell population", "setting": "HFF-3 cells [8]", "value": 8, "unit": "%"}, {"measurement": "TUNEL-positive cell population", "setting": "[9]", "value": 18, "unit": "%"}]}]}
